Data on one compound can be found in patent US10981866B2 (THE UNITED STATES OF AMERICA, AS REPRESENTED BY THE …, priority 2017, dated 2021).

For the test, the target named is bovine serum albumin (Bos taurus, UniProt P02769). In words: binding kinetics of EB-TATE and bovine serum albumin. The settings on record: unlabeled EB-TATE.
Sequence of bovine serum albumin (P02769 25-607): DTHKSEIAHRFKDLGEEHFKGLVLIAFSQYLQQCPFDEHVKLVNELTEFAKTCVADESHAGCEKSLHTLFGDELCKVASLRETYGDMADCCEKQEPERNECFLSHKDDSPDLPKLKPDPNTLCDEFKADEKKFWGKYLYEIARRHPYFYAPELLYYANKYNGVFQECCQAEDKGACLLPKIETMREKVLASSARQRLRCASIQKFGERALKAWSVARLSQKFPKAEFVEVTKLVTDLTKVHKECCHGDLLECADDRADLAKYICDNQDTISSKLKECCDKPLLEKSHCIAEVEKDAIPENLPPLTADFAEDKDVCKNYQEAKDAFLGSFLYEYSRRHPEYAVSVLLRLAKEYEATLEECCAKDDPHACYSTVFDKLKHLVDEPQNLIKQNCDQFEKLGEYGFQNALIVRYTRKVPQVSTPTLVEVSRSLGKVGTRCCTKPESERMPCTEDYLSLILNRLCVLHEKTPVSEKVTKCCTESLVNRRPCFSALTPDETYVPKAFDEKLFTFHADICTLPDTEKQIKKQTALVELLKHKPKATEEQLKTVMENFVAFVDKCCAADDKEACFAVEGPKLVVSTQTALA

`Cc1cc(-c2ccc(NC(=O)[C@@H](CCCCNC(=O)CCN3C(=O)CC(SCCC(=O)N[C@H](Cc4ccccc4)C(=O)N[C@H]4CSSCC(C(=O)NC(C(=O)O)[C@@H](C)O)NC(=O)[C@H]([C@@H](C)O)NC(=O)[C@H](CCCCN)NC(=O)[C@@H](Cc5c[nH]c6ccccc56)NC(=O)[C@H](Cc5ccccc5)NC4=O)C3=O)NC(=O)CN3CCN(CC(=O)O)CCN(CC(=O)O)CCN(CC(=O)O)CC3)c(C)c2)ccc1N=Nc1ccc2c(S(=O)(=O)O)cc(S(=O)(=O)O)c(N)c2c1O` (some centres unmarked) [EB-TATE]: the “Kd, affinity to bovine serum albumin” value was “μM Kd affinity”; the “Kon and Koff, bovine serum albumin” value was “high Kon and low Koff”.
